What was measured:
Assay type in all cases: ADME; call rule not given here
Root [1] = assay: Drug level in root of Gerbera jamesonii grown in closed hydroponic system assessed per fresh weight at 375 mg/l applied through nutrient solution measured on day 121 post-treatment in winter by gas chromatographic analysis; settings: other
Flower [2] = assay: Drug level in flower of Gerbera jamesonii grown in closed hydroponic system at 750 mg/l applied through nutrient solution measured 48 hr post-treatment in winter by gas chromatographic analysis; settings: other
Flower [3] = assay: Drug level in flower of Gerbera jamesonii grown in closed hydroponic system at 375 mg/l applied through nutrient solution measured 48 hr post-treatment in winter by gas chromatographic analysis; settings: other
Root [4] = assay: Drug recovery in root of Gerbera jamesonii grown in closed hydroponic system at 22.5 g applied through nutrient solution measured on day 56 post-treatment by gas chromatographic analysis; settings: in vivo, other
Leaf [5] = assay: Drug level in leaf of Gerbera jamesonii grown in closed hydroponic system assessed per fresh weight at 375 mg/l applied through nutrient solution measured on day 56 post-treatment in winter by gas chromatographic analysis; settings: other
Leaf [6] = assay: Drug recovery in leaf of Gerbera jamesonii grown in closed hydroponic system at 22.5 g applied through nutrient solution measured on day 56 post-treatment by gas chromatographic analysis; settings: in vivo, other
Flower [7] = assay: Drug recovery in flower of Gerbera jamesonii grown in closed hydroponic system at 45 g applied through nutrient solution measured on day 56 post-treatment by gas chromatographic analysis; settings: in vivo, other
Leaf [8] = assay: Drug level in leaf of Gerbera jamesonii grown in closed hydroponic system assessed per fresh weight at 750 mg/l applied through nutrient solution measured on day 121 post-treatment in winter by gas chromatographic analysis; settings: other
Flower [9] = assay: Drug level in flower of Gerbera jamesonii grown in closed hydroponic system assessed per fresh weight at 375 mg/l applied through nutrient solution measured on day 56 post-treatment in winter by gas chromatographic analysis; settings: other
Leaf [10] = assay: Drug level in leaf of Gerbera jamesonii grown in closed hydroponic system assessed per fresh weight at 375 mg/l applied through nutrient solution measured on day 121 post-treatment in winter by gas chromatographic analysis; settings: other
Root [11] = assay: Drug level in root of Gerbera jamesonii grown in closed hydroponic system assessed per fresh weight at 750 mg/l applied through nutrient solution measured on day 121 post-treatment in winter by gas chromatographic analysis; settings: other
Flower [12] = assay: Drug level in flower of Gerbera jamesonii grown in closed hydroponic system assessed per fresh weight at 375 mg/l applied through nutrient solution measured on day 121 post-treatment in winter by gas chromatographic analysis; settings: other
Leaf [13] = assay: Drug level in leaf of Gerbera jamesonii grown in closed hydroponic system assessed per fresh weight at 375 mg/l applied through nutrient solution measured on day 50 post-treatment in summer by gas chromatographic analysis; settings: other
Flower [14] = assay: Drug level in flower of Gerbera jamesonii grown in closed hydroponic system assessed per fresh weight at 750 mg/l applied through nutrient solution measured on day 56 post-treatment in winter by gas chromatographic analysis; settings: other
Flower [15] = assay: Drug level in flower of Gerbera jamesonii grown in closed hydroponic system assessed per fresh weight at 750 mg/l applied through nutrient solution measured on day 121 post-treatment in winter by gas chromatographic analysis; settings: other
Root [16] = assay: Drug level in root of Gerbera jamesonii grown in closed hydroponic system assessed per fresh weight at 750 mg/l applied through nutrient solution measured on day 17 post-treatment in winter by gas chromatographic analysis; settings: other
Root [17] = assay: Drug recovery in root of Gerbera jamesonii grown in closed hydroponic system at 45 g applied through nutrient solution measured on day 56 post-treatment by gas chromatographic analysis; settings: in vivo, other
Flower [18] = assay: Drug recovery in flower of Gerbera jamesonii grown in closed hydroponic system at 22.5 g applied through nutrient solution measured on day 56 post-treatment by gas chromatographic analysis; settings: in vivo, other
Leaf [19] = assay: Drug level in leaf of Gerbera jamesonii grown in closed hydroponic system assessed per fresh weight at 750 mg/l applied through nutrient solution measured on day 56 post-treatment in winter by gas chromatographic analysis; settings: other
Root [20] = assay: Drug level in root of Gerbera jamesonii grown in closed hydroponic system assessed per fresh weight at 375 mg/l applied through nutrient solution measured on day 17 post-treatment in winter by gas chromatographic analysis; settings: other
Leaf [21] = assay: Drug recovery in leaf of Gerbera jamesonii grown in closed hydroponic system at 45 g applied through nutrient solution measured on day 56 post-treatment by gas chromatographic analysis; settings: in vivo, other

## Nc1nc(N)nc(NC2CC2)n1 [CYROMAZINE]
Root [1]
  Drug uptake: 12.2 mg/kg
Flower [2]
  Drug uptake: Not Active
Flower [3]
  Drug uptake: Not Active
Root [4]
  Drug recovery: 44%
Leaf [5]
  Drug uptake: 105 mg/kg
Leaf [6]
  Drug recovery: 44%
Flower [7]
  Drug recovery: 27%
Leaf [8]
  Drug uptake: 61.8 mg/kg
Flower [9]
  Drug uptake: 32.3 mg/kg
Leaf [10]
  Drug uptake: 51.5 mg/kg
Root [11]
  Drug uptake: 15.1 mg/kg
Flower [12]
  Drug uptake: 1.9 mg/kg
Leaf [13]
  Drug uptake: 65.8 mg/kg
Flower [14]
  Drug uptake: 48.2 mg/kg
Flower [15]
  Drug uptake: 2.2 mg/kg
Root [16]
  Drug uptake: 93 mg/kg
Root [17]
  Drug recovery: 27%
Flower [18]
  Drug recovery: 44%
Leaf [19]
  Drug uptake: 129.7 mg/kg
Root [20]
  Drug uptake: 105 mg/kg
Leaf [21]
  Drug recovery: 27%
